# Laboratory results as given in US8383627B2, “Crystalline polymorph of doxazosin mesylate (form IV) and process for preparation thereof” (CIPLA Limited, priority 2007, dated 2013).
# Structures can show the parent of a compound that is named as a salt.
# Assay: Comparative intrinsic dissolution study
# Format: physicochemical
# Conditions: for % Release of Doxazosin Mesylate: 50 mg pellet, 900 ml 0.01N HCl, 37±0.5° C., paddle 50 rpm
# Experimental: To measure the intrinsic dissolution of the doxazosin mesylate Form IV, Form M and Form D, samples were measured to compare the influence of the different parameter settings. At appropriate time intervals, an automated sample collector removes aliquots from dissolution medium for analysis. The time interval for sampling can vary, for example, from 2 to 30 minutes, depending on the properties of the drug and dissolution medium used. Suitable dissolution equipment for these operations include LAB INDIA DISSO 2000.
# A tableting mixture (50 mg) comprising solely doxazosin mesylate (i.e. with no excipients) was prepared and compressed to a pellet using a manual hand press operating at a compression pressure of 5 tones for 5 minutes.
# In-vitro dissolutions studies were performed on the 50 mg pellet in a LAB INDIA DISSO 2000.
# The pellet was fixed in a PFTE holder, such that only the pellet surface came into contact with the dissolution medium. The PFTE loaded holder was placed in the dissolution vessel containing 900 ml of 0.01N HCl at 37±0.5° C. Three pellets were measured for each run of the design of the experiments. Stirring was performed with a paddle rotating at 50 rpm. The dissolution was followed up to 1440 min and the concentration of active ingredient, doxazosin mesylate, dissolved in the test medium was determined by removing samples of 10 ml at the specified time.
# The concentration of doxazosin mesylate was quantified by HPLC UV method at a maximum wavelength of 245 nm under conditions as specified: • Mobile Phase: 450:450:100:: Buffer:MeOH:Acetonitrile • Buffer: 0.3% v/v Diethylamine. The pH adjusted to 2.5 with orthophosphoric acid • Column: Inersil ODS 15 cm • Flow: 1.0 ml/min
# The percentage of doxazosin mesylate released was plotted against time. The intrinsic dissolution rate was derived from the slope of this curve.
smiles,measurement,setting,value
"COc1cc2nc(N3CCN(C(=O)C4COc5ccccc5O4)CC3)nc(N)c2cc1OC (stereo not drawn) [Form D, doxazosin mesylate]",% Release of Doxazosin Mesylate,"5 minutes, listed as Form -D",1.8%
same,% Release of Doxazosin Mesylate,"15 minutes, listed as Form -D",3.5%
same,% Release of Doxazosin Mesylate,"30 minutes, listed as Form -D",6.1%
same,% Release of Doxazosin Mesylate,"45 minutes, listed as Form -D",8.8%
same,% Release of Doxazosin Mesylate,"60 minutes, listed as Form -D",10.7%
same,% Release of Doxazosin Mesylate,"120 minutes, listed as Form -D",18.5%
same,% Release of Doxazosin Mesylate,"180 minutes, listed as Form -D",27.0%
same,% Release of Doxazosin Mesylate,"240 minutes, listed as Form -D",32.3%
same,% Release of Doxazosin Mesylate,"360 minutes, listed as Form -D",51.0%
same,% Release of Doxazosin Mesylate,"480 minutes, listed as Form -D",65.1%
same,% Release of Doxazosin Mesylate,"600 minutes, listed as Form -D",72.7%
same,% Release of Doxazosin Mesylate,720 minutes,74.5%
same,% Release of Doxazosin Mesylate,"720 minutes, listed as Form -D",74.5%
same,% Release of Doxazosin Mesylate,"900 minutes, listed as Form -D",76.0%
same,% Release of Doxazosin Mesylate,"1080 minutes, listed as Form -D",75.8%
same,% Release of Doxazosin Mesylate,"1260 minutes, listed as Form -D",75.6%
"COc1cc2nc(N3CCN(C(=O)C4COc5ccccc5O4)CC3)nc(N)c2cc1OC (stereo not drawn) [Form IV, 1-(4-amino-6,7-dimethoxy-2-quinazolinyl)-4-(2,3-dihydro-1,4-benzodioxin-2-yl)carbonyl piperazine monomethanesulfonate]",% Release of Doxazosin Mesylate,"5 minutes, monomethanesulfonate",1.6%
same,% Release of Doxazosin Mesylate,"15 minutes, monomethanesulfonate",3.6%
same,% Release of Doxazosin Mesylate,"30 minutes, monomethanesulfonate",6.6%
same,% Release of Doxazosin Mesylate,"45 minutes, monomethanesulfonate",9.5%
same,% Release of Doxazosin Mesylate,"60 minutes, monomethanesulfonate",12.0%
same,% Release of Doxazosin Mesylate,"120 minutes, monomethanesulfonate",21.8%
same,% Release of Doxazosin Mesylate,"180 minutes, monomethanesulfonate",34.5%
same,% Release of Doxazosin Mesylate,"240 minutes, monomethanesulfonate",45.7%
same,% Release of Doxazosin Mesylate,"360 minutes, monomethanesulfonate",66.2%
same,% Release of Doxazosin Mesylate,"480 minutes, monomethanesulfonate",77.4%
same,% Release of Doxazosin Mesylate,"600 minutes, monomethanesulfonate",80.0%
same,% Release of Doxazosin Mesylate,"720 minutes, listed as Form -IV, monomethanesulfonate",81.1%
same,% Release of Doxazosin Mesylate,"720 minutes, monomethanesulfonate",81.1%
same,% Release of Doxazosin Mesylate,"900 minutes, monomethanesulfonate",79.7%
same,% Release of Doxazosin Mesylate,"1080 minutes, monomethanesulfonate",79.2%
same,% Release of Doxazosin Mesylate,"1260 minutes, monomethanesulfonate",77.6%
same,higher dissolution rate compared with known Form D,at 30 minutes,8%
same,higher dissolution rate compared with known Form D,at 60 minutes,10.84%
same,higher dissolution rate compared with known Form D,at 120 minutes,15.14%
same,higher dissolution rate compared with known Form D,at 180 minutes,21.74%
same,higher dissolution rate compared with known Form D,at 240 minutes,29.33%
same,rate of dissolution,"compared with known forms, Form M and Form D",superior rate of dissolution
"COc1cc2nc(N3CCN(C(=O)C4COc5ccccc5O4)CC3)nc(N)c2cc1OC (stereo not drawn) [Form M, doxazosin mesylate]",% Release of Doxazosin Mesylate,"5 minutes, listed as Form -M",1.5%
same,% Release of Doxazosin Mesylate,"15 minutes, listed as Form -M",2.8%
same,% Release of Doxazosin Mesylate,"30 minutes, listed as Form -M",5.0%
same,% Release of Doxazosin Mesylate,"45 minutes, listed as Form -M",6.5%
same,% Release of Doxazosin Mesylate,"60 minutes, listed as Form -M",8.1%
same,% Release of Doxazosin Mesylate,"120 minutes, listed as Form -M",14.1%
same,% Release of Doxazosin Mesylate,"180 minutes, listed as Form -M",20.8%
same,% Release of Doxazosin Mesylate,"240 minutes, listed as Form -M",26.5%
same,% Release of Doxazosin Mesylate,"360 minutes, listed as Form -M",39.5%
same,% Release of Doxazosin Mesylate,"480 minutes, listed as Form -M",50.2%
same,% Release of Doxazosin Mesylate,"600 minutes, listed as Form -M",58.8%
same,% Release of Doxazosin Mesylate,"720 minutes, listed as Form -M",67.0%
same,% Release of Doxazosin Mesylate,"720 minutes, listed as form M",67.0%
same,% Release of Doxazosin Mesylate,"900 minutes, listed as Form -M",74.9%
same,% Release of Doxazosin Mesylate,"1080 minutes, listed as Form -M",78.0%
same,% Release of Doxazosin Mesylate,"1260 minutes, listed as Form -M",79.5%
